Among the data in patent US20040259926A1, “3-Aryloxy and 3-heteroaryloxy substituted benzo[b]thiophenes as therapeutic agents” (priority 2003, published 2004) are melting point and IC50 values, retold here.

Series [1] deals with T1, PI3Kγ (recombinant p101/p110γ protein) (Homo sapiens, UniProt P48736).
T1 construct: HA; made in house; host or cells: Spodoptera frugiperda (Sf9) cells, baculovirus co-infection
Kind of series: PI3Kγ In Vitro Kinase Assay. Format: biochemical. As to conditions: purified recombinant p101/p110γ with G protein β1/γ2 subunits; 20 μM ATP, [γ-32P-ATP]; 25 μM PIP2 lipid micelles; 20 minutes at room temperature. Summed up: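 Baculovirus/Sf9-expressed p101/p110γ (~2.7 nM) with Gβ1/γ2 (~57.7 nM) in HEPES/NaCl/EGTA/DTT buffer; 20 μM ATP plus [γ-32P]ATP, micelles of 25 μM PIP2, 300 μM PE, 10 mM MgCl2. Reactions ran 20 minutes at room temperature; radiolabelled PIP3 captured on glass-fibre filters and counted for IC50.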

Each structure is given as a SMILES string. pIC50: −log10 of the molar value.

T1 sequence (P48736 whole entry, species assumed): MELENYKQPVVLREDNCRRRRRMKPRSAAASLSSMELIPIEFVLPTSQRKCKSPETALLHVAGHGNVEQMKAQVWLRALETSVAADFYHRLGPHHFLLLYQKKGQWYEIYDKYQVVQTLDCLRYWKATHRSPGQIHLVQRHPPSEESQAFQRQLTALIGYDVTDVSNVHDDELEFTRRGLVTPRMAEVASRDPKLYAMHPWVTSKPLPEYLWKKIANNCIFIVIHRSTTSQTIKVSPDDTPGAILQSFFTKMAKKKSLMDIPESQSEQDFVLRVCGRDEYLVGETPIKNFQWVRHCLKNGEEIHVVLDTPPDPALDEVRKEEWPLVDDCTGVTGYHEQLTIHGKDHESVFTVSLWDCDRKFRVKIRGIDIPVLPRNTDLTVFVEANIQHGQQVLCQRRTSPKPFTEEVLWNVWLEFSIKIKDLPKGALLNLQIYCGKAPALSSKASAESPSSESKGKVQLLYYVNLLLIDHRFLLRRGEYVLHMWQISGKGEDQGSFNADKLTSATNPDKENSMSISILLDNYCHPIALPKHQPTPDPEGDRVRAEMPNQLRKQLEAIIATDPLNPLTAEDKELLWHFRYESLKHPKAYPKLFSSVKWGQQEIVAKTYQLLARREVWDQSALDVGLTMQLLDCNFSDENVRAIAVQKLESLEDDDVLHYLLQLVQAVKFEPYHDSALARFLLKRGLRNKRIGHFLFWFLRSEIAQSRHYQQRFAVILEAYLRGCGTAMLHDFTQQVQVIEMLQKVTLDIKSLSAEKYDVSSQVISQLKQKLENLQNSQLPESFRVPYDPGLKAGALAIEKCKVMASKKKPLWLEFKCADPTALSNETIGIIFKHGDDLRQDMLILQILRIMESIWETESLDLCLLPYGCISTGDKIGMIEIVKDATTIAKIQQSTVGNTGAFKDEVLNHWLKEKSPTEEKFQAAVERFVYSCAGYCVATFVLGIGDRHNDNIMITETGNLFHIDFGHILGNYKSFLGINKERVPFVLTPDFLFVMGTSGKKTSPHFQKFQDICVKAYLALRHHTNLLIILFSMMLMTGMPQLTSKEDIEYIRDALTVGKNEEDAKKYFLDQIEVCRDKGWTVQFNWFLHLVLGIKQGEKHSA
T1 sequence (Q8WYR1 whole entry partner, species assumed): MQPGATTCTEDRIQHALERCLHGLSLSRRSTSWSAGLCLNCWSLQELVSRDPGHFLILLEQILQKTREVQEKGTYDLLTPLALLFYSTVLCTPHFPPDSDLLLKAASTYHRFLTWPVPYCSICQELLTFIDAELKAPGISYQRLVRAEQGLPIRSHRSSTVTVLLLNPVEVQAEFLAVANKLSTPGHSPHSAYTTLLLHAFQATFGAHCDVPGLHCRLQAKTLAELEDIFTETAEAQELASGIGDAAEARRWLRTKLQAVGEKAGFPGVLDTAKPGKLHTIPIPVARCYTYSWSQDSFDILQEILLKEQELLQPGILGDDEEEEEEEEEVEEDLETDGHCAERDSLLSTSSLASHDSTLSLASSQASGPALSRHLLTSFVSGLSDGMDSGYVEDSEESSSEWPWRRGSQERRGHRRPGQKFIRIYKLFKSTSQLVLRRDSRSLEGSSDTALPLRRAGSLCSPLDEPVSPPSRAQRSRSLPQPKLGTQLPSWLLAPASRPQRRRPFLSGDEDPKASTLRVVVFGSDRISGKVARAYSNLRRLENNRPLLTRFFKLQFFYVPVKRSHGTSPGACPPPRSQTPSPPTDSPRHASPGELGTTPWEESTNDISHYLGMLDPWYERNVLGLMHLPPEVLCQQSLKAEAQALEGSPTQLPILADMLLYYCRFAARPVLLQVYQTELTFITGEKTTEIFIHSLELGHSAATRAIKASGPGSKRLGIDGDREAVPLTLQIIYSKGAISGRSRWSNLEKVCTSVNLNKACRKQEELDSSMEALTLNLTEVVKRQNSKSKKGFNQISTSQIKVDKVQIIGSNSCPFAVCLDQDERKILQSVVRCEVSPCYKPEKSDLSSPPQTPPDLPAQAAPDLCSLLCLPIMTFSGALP

By melting point is commonly meant the temperature, or range, at which the solid turns liquid. The compound `COc1cc2sc(C(=O)Nc3nnn[nH]3)c(OCc3ccc4ccccc4c3)c2cc1OC` [Example C.9, 5,6-Dimethoxy-3-(naphthalen-2-ylmethoxy)-benzo[b]thiophene-2-carboxylic acid (1H-tetrazol-5-yl)-amide] returned a melting point of 204 °C.
As a reminder, the pIC50 is −log10 of the IC50, conventionally taken in molar units. `Cc1cc2sc(C(=O)Nc3nn[nH]n3)c(Oc3ccc(C4CCCCC4)cc3)c2cc1O` [Example H.1, 3-(4-Cyclohexyl-phenoxy)-5-hydroxy-6-methyl-benzo[b]thiophene-2-carboxylic acid (2H-tetrazol-5-yl)-amide]: in series [1], the pIC50 was 7.55.
Take `Cc1cc2sc(C(=O)Nc3nn[nH]n3)c(Oc3ccc(C4CCCCC4)cc3)c2cc1OC(F)F` [Example H.2, 3-(4-Cyclohexyl-phenoxy)-5-difluoromethoxy-6-methyl-benzo[b]thiophene-2-carboxylic acid (2H-tetrazol-5-yl)-amide]: the pIC50 in series [1] was 6.64.
With `COc1cc2c(Oc3ccc(C4CCCCC4)cc3)c(C(=O)Nc3nnn(C)n3)sc2cc1C` [Example K.1, 3-(4-Cyclohexyl-phenoxy)-5-methoxy-6-methyl-benzo[b]thiophene-2-carboxylic acid (2-methyl-2H-tetrazol-5-yl)-amide], the pIC50 in series [1] was 5.71.
On to `COc1cc2c(Oc3ccc(C4CCCCC4)cc3)c(C(=O)N(C)c3nn[nH]n3)sc2cc1C` [Example K.2, 3-(4-Cyclohexyl-phenoxy)-5-methoxy-6-methyl-benzo[b]thiophene-2-carboxylic acid methyl-(2H-tetrazol-5-yl)-amide], for which the melting point fell in the range of 197 to 198 °C. In series [1], the negative logarithm of the IC50 (pIC50) is 5.79.
In the case of `CCOc1cc2c(Oc3ccc(C4CCCCC4)cc3)c(C(=O)Nc3nnn[nH]3)sc2cc1C` [Example L.1, 3-(4-cyclohexyl-phenoxy)-5-ethoxy-6-methyl-benzo[b]thiophene-2-carboxylic acid (1H-tetrazol-5-yl)-amide], the pIC50 in series [1] was 6.94.
